Results on 33 compounds are retold here after PubChem BioAssay (NCI).

Structures are written as SMILES.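 Tested at 5 concentrations; 48 h exposure; 96-well plates; endpoints linearly interpolated, else capped at highest concentration. TGI denotes the concentration required for complete inhibition of growth.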 Some results are limits rather than exact numbers.

The test system of one assay is MOLT-4 leukemia. The experiment in a line: growth of human tumour cells (NCI), 48 h.
`O=C(CCc1cc(O)cc(O)c1)NCCc1cc(O)cc(OCc2ccccc2)c1` displayed a TGI of 66.2 µM.
`N#Cc1c(NC(=O)C(F)(F)F)sc2c3c(=O)c4ccccc4c(=O)c=3oc3ccccc3c12`: the TGI turned out to be 34.3 µM.
The same measure, in the same setting: to `O=C1CC(O)c2cscc21` (stereo not given) belongs above 100 µM; to `COc1ccc(OC)c2sc(N3C(=O)/C(=C/c4cccc(Oc5ccccc5)c4)N=C3c3ccccc3)nc12`, above 100 µM.
The compound `C[C@@H](CC(=O)OCc1ccccc1)OC1OC(COC(=O)C(C)(C)C)C(OC(=O)C(C)(C)C)C(OC(=O)C(C)(C)C)C1OC(=O)C(C)(C)C` (stereo not given in full) returned a TGI above 100 µM.
Turning to `C=C1CC[C@@H](CCC2CCC3(OC2)O[C@]2(O)CC[C@@]3(C)OC2(C)C)C(C)(C)[C@H]1C/C=C1\CCOC1=O` (stereo not given in full), the TGI amounted to 23.9 µM.
Take `Cc1nc2c(sc3nc4c(cc32)CCC4)c(=O)o1`: the TGI is above 100 µM.
As to `Cc1ccc(OCC2OC(n3cnc4c(Cl)nc(Nc5cc(Cl)cc(Cl)c5)nc43)CC2Oc2ccc(C)cc2)cc1` (stereo not given), the TGI was above 100 µM.
As for `O=[N+]([O-])c1cccc2nc3ccccc3c(NCCCCCNc3c4ccccc4nc4cccc([N+](=O)[O-])c34)c12`, the TGI was found to be 0.244 µM.
In the case of `COC(=O)c1c(C)cccc1/C=C1\Cc2ccc(C)c(C)c2C1=O`, the TGI was above 100 µM.
Still for that read-out and setting: with `COc1ccccc1C1c2cc3c(cc2OC2(OC)COC(=O)C12)OCO3` (stereo not given) the figure was above 46.2 µM; with `COc1ccc(/C(Nc2ccccc2)=C(\CCl)c2ccccc2)cc1OC`, above 100 µM.
Regarding `O=S(=O)(/N=C(\NO)Nc1ccc(Cl)cc1)c1cc(C(F)(F)F)cc(C(F)(F)F)c1`, the TGI turned out to be 70.2 µM.

The test system of the next assay is K-562 leukemia. Nature of the assay: growth of human tumour cells (NCI), 48 h.
`C1CSCCSCCCS[C@@H]2CCCCC2SC1` (stereo not given in full) had a TGI of 96.1 µM.
`COC(=O)[C@H](Cc1ccccc1)NC(=O)c1ccc(CNC(=O)/C=C/c2csc(-c3ccccc3)n2)cc1` returned a TGI above 31.9 µM.
`CCN(/C=C1/C(=O)C(c2ccccc2)N(c2ccccc2)C1=O)CC` (stereo not given) registered a TGI above 10 µM.
Same read-out and setting: to `COC(=O)C1CCC(=O)N1CN(C(C)=O)c1cccc(O)c1` (stereo not given) belongs above 100 µM; to `COc1ccc(-c2oc3cc(-c4cc5oc(-c6ccc(OC)cc6)c(-c6ccc(OC)cc6)c5cc4OC)c(OC)cc3c2-c2ccc(OC)cc2)cc1`, above 100 µM; to `CCOC(=O)c1c(NC(=O)c2ccccc2)c(C#N)c2n1CCCCC2`, above 100 µM.
`O=c1cc(Nc2cccc(O)c2)[nH]c(=O)[nH]1` gave a TGI above 100 µM.
Compound `c1cc(-c2ccc(-c3ccsc3)s2)cs1` had a TGI above 100 µM.
On to `O=C(Nn1c(-c2ccccc2)nc2ccccc2c1=O)c1ccc(Cl)cc1`, for which the TGI is above 100 µM.
For `CC(=O)c1ccc(N=NN2CCCC2)cc1`, the TGI was above 100 µM.
Still for that read-out and setting: with `CSC(=O)/C=C1\SS/C(=C\C(=O)SC)S1` the figure was above 100 µM.
`NCCOc1cccc(C2(N3CCCCC3)CCCCC2)c1` yielded a TGI of 35.1 µM.
Regarding `CC(N)(CC(O)(C(F)(F)Cl)C(F)(F)Cl)C(=O)O` (stereo not given), the TGI was above 10 µM.
The compound `NC1=NC2(COC(c3ccccc3)(c3ccccc3)c3ccccc3)OC(COC(c3ccccc3)(c3ccccc3)c3ccccc3)C(O)C2O1` (stereo not given) returned a TGI above 100 µM.
Consider `CCCCCCCCCCCCCCCCCCNc1ccn(C2OC(COP(=O)(O)OCC3OC(n4ccc(N)nc4=O)C(O)C3O)C(O)C2O)c(=O)n1` (stereo not given), for which the TGI was above 100 µM.
`CCOc1cnc(C(O)(c2ccccc2)c2ccccc2)o1` came in with a TGI above 100 µM.
Compound `COC(CN(C)C(=S)Nc1cccc2ccccc12)OC` gave a TGI above 10 µM.
Take `CC(=O)c1ccc(Nc2c3c(nc4ccccc24)CCCC3)cc1`: the TGI is above 100 µM.
On to `CCN1CCC(O)(c2ccc([N+](=O)[O-])cc2)C(C(=O)c2ccc([N+](=O)[O-])cc2)C1` (stereo not given), for which the TGI is above 100 µM.
Still for that read-out and setting: to `S=C1Cc2c(-c3ccccc3)cc(-c3cccc(Cl)c3)nc2-c2ccccc2N1` belongs above 100 µM; to `O=C(CCc1cc(O)cc(O)c1)NCCc1cc(O)cc(OCc2ccccc2)c1`, 96.3 µM.
On the same count and under the same terms, with `N#Cc1c(NC(=O)C(F)(F)F)sc2c3c(=O)c4ccccc4c(=O)c=3oc3ccccc3c12` the figure was 75.3 µM; with `O=C1CC(O)c2cscc21` (stereo not given), above 100 µM.
The compound `COc1ccc(OC)c2sc(N3C(=O)/C(=C/c4cccc(Oc5ccccc5)c4)N=C3c3ccccc3)nc12` showed a TGI above 100 µM.
Still for that read-out and setting: to `C[C@@H](CC(=O)OCc1ccccc1)OC1OC(COC(=O)C(C)(C)C)C(OC(=O)C(C)(C)C)C(OC(=O)C(C)(C)C)C1OC(=O)C(C)(C)C` (stereo not given in full) belongs above 100 µM; to `C=C1CC[C@@H](CCC2CCC3(OC2)O[C@]2(O)CC[C@@]3(C)OC2(C)C)C(C)(C)[C@H]1C/C=C1\CCOC1=O` (stereo not given in full), 26.5 µM; to `Cc1nc2c(sc3nc4c(cc32)CCC4)c(=O)o1`, above 100 µM.
For the compound `Cc1ccc(OCC2OC(n3cnc4c(Cl)nc(Nc5cc(Cl)cc(Cl)c5)nc43)CC2Oc2ccc(C)cc2)cc1` (stereo not given), the TGI is above 100 µM.
`O=[N+]([O-])c1cccc2nc3ccccc3c(NCCCCCNc3c4ccccc4nc4cccc([N+](=O)[O-])c34)c12` came in with a TGI of 0.678 µM.
`COC(=O)c1c(C)cccc1/C=C1\Cc2ccc(C)c(C)c2C1=O` had a TGI above 100 µM.
The compound `COc1ccccc1C1c2cc3c(cc2OC2(OC)COC(=O)C12)OCO3` (stereo not given) yielded a TGI above 45.6 µM.
As for `COc1ccc(/C(Nc2ccccc2)=C(\CCl)c2ccccc2)cc1OC`, the TGI is 64.9 µM.
In the case of `O=S(=O)(/N=C(\NO)Nc1ccc(Cl)cc1)c1cc(C(F)(F)F)cc(C(F)(F)F)c1`, the TGI was 90.4 µM.

A further assay deals with DMS 273 small cell lung. Nature of the assay: growth of human tumour cells (NCI), 48 h.
As to `C1CSCCSCCCS[C@@H]2CCCCC2SC1` (stereo not given in full), the TGI is above 100 µM.

In the next assay the test system is NCI-H522 lung. Nature of the assay: growth of human tumour cells (NCI), 48 h.
As to `C1CSCCSCCCS[C@@H]2CCCCC2SC1` (stereo not given in full), the TGI was above 100 µM.
In turn, `COC(=O)[C@H](Cc1ccccc1)NC(=O)c1ccc(CNC(=O)/C=C/c2csc(-c3ccccc3)n2)cc1` came in with a TGI of 13.7 µM.
In the case of `CCN(/C=C1/C(=O)C(c2ccccc2)N(c2ccccc2)C1=O)CC` (stereo not given), the TGI is above 10 µM.
With `COC(=O)C1CCC(=O)N1CN(C(C)=O)c1cccc(O)c1` (stereo not given), the TGI is above 100 µM.
As for `COc1ccc(-c2oc3cc(-c4cc5oc(-c6ccc(OC)cc6)c(-c6ccc(OC)cc6)c5cc4OC)c(OC)cc3c2-c2ccc(OC)cc2)cc1`, the TGI was above 100 µM.
As for `CCOC(=O)c1c(NC(=O)c2ccccc2)c(C#N)c2n1CCCCC2`, the TGI was above 100 µM.
Take `O=c1cc(Nc2cccc(O)c2)[nH]c(=O)[nH]1`: the TGI was above 100 µM.
In turn, `c1cc(-c2ccc(-c3ccsc3)s2)cs1` had a TGI above 100 µM.
`O=C(Nn1c(-c2ccccc2)nc2ccccc2c1=O)c1ccc(Cl)cc1`: the TGI is above 100 µM.
On the same count and under the same terms, to `CC(=O)c1ccc(N=NN2CCCC2)cc1` belongs above 100 µM.
`CSC(=O)/C=C1\SS/C(=C\C(=O)SC)S1` yielded a TGI of 6.34 µM.
Consider `NCCOc1cccc(C2(N3CCCCC3)CCCCC2)c1`, for which the TGI amounted to 36.1 µM.
`CC(N)(CC(O)(C(F)(F)Cl)C(F)(F)Cl)C(=O)O` (stereo not given) showed a TGI above 10 µM.
